In one series the target is α1β2γ2 GABAA receptors (Homo sapiens, UniProt P14867+P47870). Nature of the series: Synchropatch electrophysiology, potentiation of synaptic GABAA receptors. It counts as cell-based. To be noted: for Emax: α1β2γ2 Synaptic receptors, Synchropatch electrophysiology, read-out: Emax - efficacy: % of potentiation.
Another series has as its target α4β3δ GABAA receptors (Homo sapiens, UniProt P28472+P48169). The experiment in a line: Synchropatch electrophysiology, potentiation of extra synaptic GABAA receptors. Format: cell-based.
For series [1] the following is noted: dog, in vivo, 1 mg/kg.
The conditions of series [2]: humans, cited from earlier work.
The conditions of series [3]: humans, cited from earlier work. This is another data set of the same source.
In a further series the test system is Forced swim test. The experiment in a line: Forced swim test - Depression. Format: in vivo, rodent. To be noted: preclinical animal model.
For series [4] the following is noted: humans, cited from earlier work. This is another data set of the same source.
Where [5] appears, read: 30 mg, day 7 MAD (MTD), morning dosing.

One may read the EC50 as the concentration at which the effect is half-maximal. By Emax is commonly meant the greatest response seen or fitted, relative to the assay's reference. One may read the Cmax as the maximum level reached in the sampled fluid or tissue. The term Tmax denotes the time from dosing to the highest level. Usually AUC(0-inf) stands for total exposure, with the tail of the curve extrapolated.

Molecules are shown by their SMILES. Like-named read-outs stand apart in the source and are kept apart here.

Chain of α1β2γ2 GABAA receptors (P14867 28-456): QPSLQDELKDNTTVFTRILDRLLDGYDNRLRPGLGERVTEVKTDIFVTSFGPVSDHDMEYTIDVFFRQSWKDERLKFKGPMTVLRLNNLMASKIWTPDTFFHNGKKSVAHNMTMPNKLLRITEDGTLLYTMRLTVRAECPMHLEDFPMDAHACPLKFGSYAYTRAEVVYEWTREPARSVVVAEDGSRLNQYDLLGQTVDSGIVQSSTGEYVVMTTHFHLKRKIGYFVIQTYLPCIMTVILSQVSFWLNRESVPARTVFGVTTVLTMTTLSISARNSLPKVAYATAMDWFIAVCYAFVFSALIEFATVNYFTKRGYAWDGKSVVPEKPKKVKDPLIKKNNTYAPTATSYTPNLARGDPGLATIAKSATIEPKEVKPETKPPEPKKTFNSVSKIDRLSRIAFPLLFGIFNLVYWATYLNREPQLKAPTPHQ
Chain of α1β2γ2 GABAA receptors (P47870 25-512 limits assumed): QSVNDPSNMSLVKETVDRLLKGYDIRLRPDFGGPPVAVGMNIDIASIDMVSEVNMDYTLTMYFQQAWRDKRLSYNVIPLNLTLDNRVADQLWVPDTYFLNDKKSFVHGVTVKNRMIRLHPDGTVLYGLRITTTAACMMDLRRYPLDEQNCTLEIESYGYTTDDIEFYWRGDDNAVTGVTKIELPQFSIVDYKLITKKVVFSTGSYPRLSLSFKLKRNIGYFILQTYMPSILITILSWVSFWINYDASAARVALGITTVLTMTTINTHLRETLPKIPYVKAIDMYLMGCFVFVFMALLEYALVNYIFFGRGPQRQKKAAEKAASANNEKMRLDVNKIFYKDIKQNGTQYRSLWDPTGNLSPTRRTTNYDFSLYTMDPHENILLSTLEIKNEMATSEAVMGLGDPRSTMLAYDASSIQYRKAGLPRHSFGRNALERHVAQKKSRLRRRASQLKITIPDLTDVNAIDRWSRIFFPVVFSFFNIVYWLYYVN
Chain of α1β2γ2 GABAA receptors (P18507 40-475 partner): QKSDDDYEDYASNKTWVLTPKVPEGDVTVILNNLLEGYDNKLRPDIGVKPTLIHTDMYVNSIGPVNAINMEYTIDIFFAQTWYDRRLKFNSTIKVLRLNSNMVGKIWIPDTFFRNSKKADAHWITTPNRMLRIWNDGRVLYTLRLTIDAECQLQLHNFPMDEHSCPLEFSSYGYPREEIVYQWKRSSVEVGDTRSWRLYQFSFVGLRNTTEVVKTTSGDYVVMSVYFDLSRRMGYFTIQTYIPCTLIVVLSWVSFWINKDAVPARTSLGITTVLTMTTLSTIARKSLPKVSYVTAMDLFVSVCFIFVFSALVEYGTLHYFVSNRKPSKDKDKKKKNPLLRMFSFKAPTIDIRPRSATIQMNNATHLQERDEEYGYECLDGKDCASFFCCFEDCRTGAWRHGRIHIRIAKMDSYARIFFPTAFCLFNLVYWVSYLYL
Chain of α4β3δ GABAA receptors (P48169 36-554): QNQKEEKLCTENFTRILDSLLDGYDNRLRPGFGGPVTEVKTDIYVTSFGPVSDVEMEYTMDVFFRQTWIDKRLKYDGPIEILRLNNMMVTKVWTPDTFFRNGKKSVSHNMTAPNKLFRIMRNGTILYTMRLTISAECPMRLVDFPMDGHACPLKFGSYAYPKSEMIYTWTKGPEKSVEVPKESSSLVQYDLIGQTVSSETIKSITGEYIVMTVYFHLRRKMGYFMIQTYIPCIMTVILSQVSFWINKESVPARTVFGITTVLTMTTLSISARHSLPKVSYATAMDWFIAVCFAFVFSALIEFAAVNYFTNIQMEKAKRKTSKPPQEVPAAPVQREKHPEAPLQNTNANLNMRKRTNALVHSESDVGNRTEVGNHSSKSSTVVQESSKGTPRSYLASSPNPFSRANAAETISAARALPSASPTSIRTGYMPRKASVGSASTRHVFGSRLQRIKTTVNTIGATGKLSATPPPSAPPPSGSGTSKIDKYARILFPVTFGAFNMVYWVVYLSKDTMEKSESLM
Chain of α4β3δ GABAA receptors (P28472 26-473): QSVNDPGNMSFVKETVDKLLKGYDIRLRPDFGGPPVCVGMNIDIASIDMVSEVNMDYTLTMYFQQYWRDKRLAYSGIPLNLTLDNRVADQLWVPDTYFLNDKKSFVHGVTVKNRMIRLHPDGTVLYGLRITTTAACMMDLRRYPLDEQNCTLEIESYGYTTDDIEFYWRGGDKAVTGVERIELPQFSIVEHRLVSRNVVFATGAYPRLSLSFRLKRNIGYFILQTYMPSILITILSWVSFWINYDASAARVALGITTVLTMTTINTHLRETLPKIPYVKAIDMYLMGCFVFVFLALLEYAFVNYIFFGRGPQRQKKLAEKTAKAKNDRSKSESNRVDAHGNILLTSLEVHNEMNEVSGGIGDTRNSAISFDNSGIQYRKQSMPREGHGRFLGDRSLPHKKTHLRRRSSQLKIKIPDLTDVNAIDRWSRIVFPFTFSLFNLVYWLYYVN
Chain of α4β3δ GABAA receptors (O14764 25-452 partner): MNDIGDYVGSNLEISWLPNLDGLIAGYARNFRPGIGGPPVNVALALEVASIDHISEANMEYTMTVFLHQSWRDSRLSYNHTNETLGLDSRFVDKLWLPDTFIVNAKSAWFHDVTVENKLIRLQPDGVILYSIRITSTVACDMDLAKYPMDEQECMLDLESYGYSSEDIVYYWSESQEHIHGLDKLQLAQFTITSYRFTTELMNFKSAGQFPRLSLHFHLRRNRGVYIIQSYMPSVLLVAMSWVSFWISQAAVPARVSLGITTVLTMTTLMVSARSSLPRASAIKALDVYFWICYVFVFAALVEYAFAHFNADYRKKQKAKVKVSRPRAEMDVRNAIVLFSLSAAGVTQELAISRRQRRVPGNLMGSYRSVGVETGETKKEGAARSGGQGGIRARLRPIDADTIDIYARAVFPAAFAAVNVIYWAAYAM

`CC(=O)[C@H]1CC[C@H]2[C@@H]3CC[C@H]4C[C@](C)(O)CC[C@]4(C)[C@H]3CC[C@]12C` [Ganaxolone, ganaxolone]: at α1β2γ2 GABAA receptors, the EC50 amounted to 90 nM and the Emax came to 745%. Besides, on α4β3δ GABAA receptors, the concentration for a half-maximal effect (EC50) stood at 213 nM.

Turning to `C[C@@]1(O)CC[C@@]2(C)[C@@H](CC[C@@H]3[C@@H]2CC[C@]2(C)[C@@H](C(=O)Cn4cc(C#N)cn4)CC[C@@H]32)C1` [CV-10155 (30% HPbCD)], in series [1] (iv), the highest concentration (Cmax) was 1732 ng/mL and the T½ came to 13.93 h. For the same compound, in series [1] (po), the Cmax was determined as 510 ng/mL, the Tmax amounted to 0.75 h and the T½ came out at 13.62 h.

Consider `C[C@@]1(O)CC[C@@]2(C)[C@@H](CC[C@@H]3[C@@H]2CC[C@]2(C)[C@@H](C(=O)Cn4cc(C#N)cn4)CC[C@@H]32)C1` [CV-10155 (Labrosol)], for which, in series [1] (po), the Cmax is 266 ng/mL, the time of peak concentration (Tmax) was 0.625 h and the T½ came to 18.93 h.

On to `C[C@@]1(O)CC[C@H]2[C@H](CC[C@@H]3[C@@H]2CC[C@]2(C)[C@@H](C(=O)Cn4cc(C#N)cn4)CC[C@@H]32)C1` [Sage-217], for which, in series [2] (55 mg SAD MTD), the total exposure AUC(0-inf) is 1633 ng·h/mL, the highest concentration (Cmax) was 149.9 ng/mL, the T1/2 was 17.02 h and the Tmax is listed as 1.24 h. Moreover, the “MTD, single ascending dose (SAD)” value in series [2] is given as “SAGE-217 55 mg SAD MTD”. Moreover, at α1β2γ2 GABAA receptors, the 50% effective concentration (EC50) was 189 nM and the maximal effect (Emax) was 1000%. In series [3] (30 mg daily in the evening in a fed state), the “ratio of Cmax/trough on day 7” value is reported as 5.88. In series [3] (setting [5]), the AUC0_inf is 833.2 h*ng/m1, the Cmax is 115.2 ng/mL, the Cmin is 12.46 ng/mL and the “Ratio (Cmax/Cmin)” value is 9.24. In series [3] (setting [5]), the “T1/2” value is given as 15.27 h and the Tmax is 1 h. The “MTD, multiple ascending dose (MAD)” value in series [3] (morning dosing) was “SAGE-217 30mg”. Besides, in the series with Forced swim test, the “Forced swim test - Depression: doses tested, * = significantly efficacious dose” value was 1 - 3* mg/kg. The EC50 at α4β3δ GABAA receptors came out at 148 nM. Also, in series [4] (20 mg (n-188)), the “Any adverse event, %” value is listed as 50.0%; the “Diarrhea, %” value is 5.9%; the “Dizziness, %” value is 7.4%; the “Fatigue, %” value is listed as 1.6%. In series [4] (20 mg (n-188)), the “Headache, %” value is on record as 11.2%; the “Nausea, %” value is 5.3%; the “Sedation, %” value is on record as 5.9%; the “Somnolence, %” value is 5.9%. In series [4] (30 mg (n-192)), the “Any adverse event, %” value is listed as 54.2%; the “Diarrhea, %” value was 6.3%; the “Dizziness, %” value is 5.7%; the “Fatigue, %” value is listed as 6.8%. Moreover, in series [4] (30 mg (n-192)), the “Headache, %” value is given as 6.3%; the “Nausea, %” value is recorded as 3.6%; the “Sedation, %” value was 4.7%; the “Somnolence, %” value is reported as 6.8%.

The record behind these values is patent US20220296613A1, “FOOD-INDEPENDENT DOSING OF CV-10155 TO TREAT GABAA DISORDERS” (priority 2021, published 2022).
